System: M. tuberculosis H37Rv growth inhibition
Experiment: M. tuberculosis H37Rv growth inhibitors, H37Rv strain (AID 1626)
Conditions: for IC90: measured here: IC90 against H37Rv; for CC50: measured here: Vero cell cytotoxicity

Cc1ccc(NC(=O)N2CCC(c3nc4c(nnn4Cc4cccc(Cl)c4)c(=O)[nH]3)CC2)cc1
IC50: 5.13 µM | IC90: 6.62 µM

O=C(NCCCn1ccnc1)c1nn2c(C(F)(F)F)cc(-c3ccc(Br)cc3)nc2c1Cl
IC50: 6.53 µM | IC90: 9.35 µM | CC50: > 40 µM

CC1CCCC(NCC(O)COC(c2ccc(F)cc2)c2ccc(F)cc2)C1C (centres undefined)
IC50: 5.69 µM | IC90: 6.42 µM | CC50: 24.3 µM

CCc1ccc(/C=c2\s/c(=C\C(=O)C(C)(C)C)[nH]c2=O)cc1
IC50: 2.55 µM | IC90: 3.56 µM | CC50: > 40 µM

CCN(CC)c1ccc(N=Cc2ccc([N+](=O)[O-])o2)cc1
IC50: 8.8 µM | IC90: 45.6 µM | CC50: > 40 µM

Cc1ccc(C)c(/C=C/C(=O)c2ccccc(=O)c2O)c1
CC50: 4.93 µM

Cc1cc(=O)oc2cc(OC(=O)c3ccco3)ccc12
IC50: 61.6 µM | IC90: > 100 µM

CC1CC(C)CN(C(=O)/C=C/c2ccc([N+](=O)[O-])s2)C1 (centres undefined)
IC50: 10.2 µM | IC90: 13.3 µM | CC50: 37.4 µM

CN(CCCC[C@H](CNCc1ccc(-c2ccccc2)cc1)N1C[C@H](c2ccccc2)N(CCc2ccc(Cl)c(Cl)c2)C(=O)C1=O)Cc1ccc(-c2ccccc2)cc1
IC50: 5.07 µM | IC90: 5.61 µM | CC50: 6.12 µM

COc1cccc(NC(=O)c2cc(-c3ccncc3)nc3c(C)cc(C)cc23)c1
IC50: 10.9 µM | IC90: 18.5 µM | CC50: > 40 µM

O=C(OCC#CCSc1nc2ccccc2o1)c1ccco1
IC50: 4.27 µM | IC90: 12.4 µM

Cn1c(C(C#N)C(=O)c2sc3ccccc3c2Cl)nc2ccccc21 (centres undefined)
CC50: > 40 µM

COc1cc(CNCCc2c[nH]c3ccccc23)ccc1OCc1ccccc1F
IC50: 14 µM | IC90: 21.3 µM | CC50: 15.1 µM

COc1ccc(OCc2nn3c(-c4cccc(OC)c4)nnc3s2)cc1
IC90: > 100 µM

CCCCCCOc1cccc(N)c1
IC50: 16.9 µM | IC90: > 100 µM

Cc1ccn2c(Nc3ccccc3)c(-c3ccccn3)nc2c1
IC50: 2.88 µM | IC90: 3.3 µM | CC50: 2.12 µM

Cc1ccc(-c2[nH]nc(N)c2N=Nc2ccccc2C)cc1
IC50: 5.45 µM | IC90: 8.36 µM | CC50: > 40 µM

COc1ccc(NC(=O)CSC2=C(C#N)C(c3ccco3)C(C(=O)Nc3nc4ccccc4s3)=C(C)N2)cc1 (centres undefined)
IC50: 14 µM | IC90: > 100 µM | CC50: > 40 µM

N#CC(c1cccc(Cl)c1)c1ccc2c(C(F)(F)F)cc(C(F)(F)F)nc2n1 (centres undefined)
CC50: 0.415 µM

COc1ccc(N=C2CCS(=O)(=O)c3sccc32)cc1
IC50: 54.3 µM | IC90: > 100 µM

CC[C@H](CO)NCCN[C@H](CC)CO
IC50: 0.778 µM | IC90: > 100 µM

O=C(Nc1nnc(-c2ccncc2)o1)c1ccc(Br)s1
IC50: 15 µM | IC90: 29.7 µM | CC50: 20.6 µM

Cc1cc(NCCCn2ccnc2)n2nc(C)c(-c3ccc(Cl)cc3)c2n1
IC50: 4.03 µM | IC90: 5.75 µM | CC50: 12.9 µM

COc1cc(-c2nnc(SCC(=O)OC3CCCCC3)o2)cc(OC)c1OC
IC50: < 0.195 µM | IC90: 1.78 µM

Cc1cc(NC(=O)CCN2C(=O)C3C4C=CC(C4)C3C2=O)ccc1Br (centres undefined)
IC50: 35.3 µM | IC90: > 100 µM

O=C(C[n+]1cc(-c2ccc(Cl)c(Cl)c2)n2c1CCC2)N1c2ccccc2Sc2ccccc21
IC50: 12.2 µM | IC90: 13.9 µM

Cc1cccc(-c2ncc(CN3CCC(CO)(CCCc4ccccc4)CC3)cn2)c1
IC50: 13.2 µM | IC90: 40.7 µM | CC50: > 40 µM

COc1ccc(NC(=O)CCc2nc(-c3ccccc3F)no2)cc1
IC90: > 100 µM

O=[N+]([O-])c1cc(C=Nc2ccc3ccccc3c2)ccc1Br
IC50: 5.95 µM | IC90: > 100 µM

CC(C)CCN1C(=O)c2ccc(-c3nc4ccccc4c(=O)o3)cc2C1=O
IC50: 5.26 µM | IC90: > 100 µM

COCCCN=C1NN=C(c2cc(C)n(-c3ccccc3F)c2C)CS1
IC50: 5.21 µM | IC90: 7.08 µM | CC50: 21.7 µM

CCOc1ccc(-c2csc(/C(C#N)=C\c3ccc(O)c([N+](=O)[O-])c3)n2)cc1
IC50: 8.54 µM | IC90: 14.9 µM | CC50: 10.9 µM

Clc1ccc(-c2ccc(C=Nc3ccc(N4CCOCC4)cc3)o2)cc1
IC50: 7.5 µM | IC90: > 100 µM

CCOC(=O)c1sc(NC(=O)CSc2ncn[nH]2)c(C#N)c1C
CC50: > 40 µM

CCn1ccnc1CN(C)Cc1cn(-c2cc(C)ccc2C)nc1-c1ccccc1
IC50: 5.88 µM | IC90: 10.3 µM

CCOC(=O)COc1ccc2c(=O)c(-c3ccccc3OC)coc2c1
IC50: 1.06 µM | IC90: 2.45 µM

O=C(CCl)Nc1ccccc1C(=O)NCc1ccccc1
IC50: 8.16 µM | IC90: 21.2 µM | CC50: 24.4 µM

CC(C)c1c(O)nc(SCC(=O)Nc2ccc3c(c2)CCC3)[nH]c1=O
IC50: 32.8 µM | IC90: > 100 µM

CCN(CC)c1ccc(/C=C(/C#N)c2nc3ccccc3[nH]2)c(OC(C)C)c1
IC50: 0.488 µM | IC90: 0.936 µM | CC50: > 40 µM

CCCc1cc(-c2nc(-c3ccc(Br)cc3)cs2)ccn1
IC50: 5.68 µM | IC90: 10.4 µM

Cc1ccc(-c2ccc(/C=C3\SC(N4CCOCC4)=NC3=O)o2)cc1
IC50: 23.5 µM | IC90: > 100 µM | CC50: > 40 µM

O=C1CC(/C=C/c2ccc(Cl)cc2)=Nc2ccccc2N1
IC50: 6.69 µM | IC90: > 100 µM | CC50: 38.6 µM

COc1ccc2[nH]c(=O)c(CN(C(=O)NC3CCCCC3)C3CCCCC3)cc2c1
IC90: > 100 µM | CC50: > 40 µM

c1ccc(Oc2nc(-c3ccccn3)nc3ccccc23)cc1
IC50: 2.71 µM | IC90: 13.8 µM | CC50: > 40 µM

O=C(Nc1ncc(Cc2ccccc2)s1)C1=NCCN1
IC50: 11.6 µM | IC90: > 100 µM | CC50: > 40 µM

Cc1ccc(NC(=O)NCC2CCN(Cc3cccc(Cl)c3)CC2)cc1Cl
IC50: 11.6 µM | IC90: 31.2 µM | CC50: 29.4 µM

Cc1nccc(-c2ccc(-n3c(C)ccc3C)cc2)n1
IC90: > 100 µM | CC50: > 40 µM

COc1ccc(N/C=C/C(=O)c2sc(-c3ccccc3)nc2C)cc1
IC50: 69.2 µM | IC90: > 100 µM | CC50: > 40 µM

COc1cc(/C=C/c2ccc3c([N+](=O)[O-])cccc3n2)ccc1OCC(=O)O
IC50: 2.72 µM | IC90: 6.3 µM

N#Cc1nc(-c2cccs2)oc1NCCc1ccccc1
IC50: 1.97 µM | IC90: 5.43 µM

O=C(NC1=NCCS1)c1ccc(-c2ccc(Cl)cc2)o1
IC50: 28.4 µM | IC90: > 100 µM

O=C(Nc1ccc(F)c(Cl)c1)Nc1csc2ccccc12
IC50: 54.9 µM | IC90: > 100 µM | CC50: 7.06 µM

Cn1c(-c2ccccc2)cc2c3no[n+]([O-])c3ccc21
IC50: < 0.195 µM | IC90: 0.445 µM | CC50: 2.6 µM

O=C(NCc1cccnc1)/C(=C/c1ccc(-c2ccc(Cl)cc2)o1)S(=O)(=O)c1ccccc1
IC50: 3.9 µM | IC90: 29.7 µM | CC50: 24 µM

CCc1ccc(CCC(=O)Nc2ccc(OC)cc2)o1
IC50: 35.9 µM | IC90: > 100 µM

O=C(Nc1nc(-c2ccc(-c3ccccc3)cc2)cs1)c1cnccn1
IC90: > 100 µM | CC50: > 40 µM

O=C(Nc1ccc(C2=NCCN2)cc1)c1ccc(Cl)c(C(=O)Nc2ccc(C3=NCCN3)cc2)c1
IC50: 7.69 µM | IC90: 16.9 µM

O=C(CSc1nc2ccccc2o1)NCC(=O)c1ccccc1
IC50: 8.36 µM | IC90: 25.9 µM

Cc1cccc(N2CCN(C(=O)c3ccc(CNc4c(N5CCC(C)CC5)c(=O)c4=O)cc3)CC2C)c1 (centres undefined)
IC50: 15.8 µM | IC90: 22.2 µM | CC50: > 40 µM

O=C1c2cccc3c(N4CCOCC4)c([N+](=O)[O-])cc(c23)C(=O)N1c1cccc2ccccc12
IC50: 5.97 µM | IC90: 6.82 µM | CC50: > 40 µM

CCc1sc(N)nc1-c1ccccc1
IC90: > 100 µM

CC(C)NCC(O)Cn1c2c(c3ccccc31)CCc1c-2cnn1-c1ccccc1 (centres undefined)
IC50: 10.1 µM | IC90: 13.6 µM | CC50: 7.97 µM

NC1CCN(c2nc3c(cc2F)c(=O)c(C(=O)O)cn3-c2ccc(F)cc2F)C1 (centres undefined)
IC50: 1.29 µM | IC90: 4.21 µM

CCCCOC(=O)Nc1ccc(C)c(Cl)c1
IC90: > 100 µM

CCOC(=O)c1cn[nH]c1N
IC90: > 100 µM

CC(C)c1cc(NC(=O)CCl)on1
IC50: 13.7 µM | IC90: 32.6 µM | CC50: 16.7 µM

O=C(COc1ccc2c(c1)OCO2)Nc1ccc2c(c1)oc1ccccc12
IC90: > 100 µM | CC50: > 40 µM

CCS(=O)(=O)Nc1ccc(-c2cc(-c3ccccc3)c3cc(C)ccc3n2)cc1
IC50: 9.19 µM | IC90: 13.5 µM | CC50: 34.7 µM

COc1ccc(NCc2nc3ccccc3n2CCOc2ccc(C)cc2)cc1
IC50: 17.8 µM | IC90: 26.2 µM | CC50: 26.2 µM

Cc1ccc2nc(-c3ccccn3)c(Nc3ccccc3C)n2c1
IC50: 1.52 µM | IC90: 2.24 µM | CC50: 3.42 µM

C=CCn1c(COc2ccc3c(c2)CCCC3)nnc1SCC(=O)Nc1cccc(SC)c1
IC90: > 100 µM

Cc1ccc(-c2nsc(SCC(=O)Nc3ccc4c(c3)OCO4)n2)cc1
IC50: 0.892 µM | IC90: 2.51 µM

O=C(CSc1nc(-c2ccccc2Cl)ns1)Nc1ccc2c(c1)OCO2
CC50: > 40 µM

COc1cccc(-c2nnc(NC(=O)c3ccccc3Br)o2)c1
IC50: 3.79 µM | IC90: 9.35 µM | CC50: > 40 µM

COc1cnc(-c2ccccn2)nc1Sc1ccccc1
IC50: 2.66 µM | IC90: 4.96 µM | CC50: 8.62 µM

CCCOC(=O)c1ccc(NC(=O)C2CCCO2)cc1 (centres undefined)
IC50: 10.3 µM | IC90: > 100 µM

O=C1CCCC(O)=C1C=Nc1ccc2c(c1)oc1ccccc12
IC50: < 0.195 µM | IC90: > 100 µM

O=C(Nc1nnc(-c2ccc(Cl)s2)o1)C1CCCCC1
IC50: 3.84 µM | IC90: > 100 µM | CC50: > 40 µM

N#C/C(=C\c1c[nH]c2ccccc12)C(=O)Nc1ncc(Cc2ccc(Cl)cc2Cl)s1
IC50: 11.7 µM | IC90: 13.5 µM | CC50: > 40 µM

CCOC(=O)C1=C(CC)Nc2ccccc2N=C1NC(=O)Nc1ccc(Cl)c(Cl)c1
IC50: 2.73 µM | IC90: 3.1 µM | CC50: 10.3 µM

CC(C)Cc1cc(C(=O)Nc2c(F)cc(F)cc2Br)no1
IC50: 6.59 µM | IC90: 10.5 µM

COc1ccc(-c2nn(-c3ccccc3)cc2C(=O)Nc2nccs2)cc1
IC90: > 100 µM | CC50: > 40 µM

CCC(C)c1ccccc1NC(=O)CN1CCN(C/C=C/c2ccccc2)CC1 (centres undefined)
IC50: 21.9 µM | IC90: 35.1 µM

Source: PubChem BioAssay AID1626 (SRMLSC, 2009)
